Laboratory results reported in ChEMBL document CHEMBL3861982, “Three new alkaloids from Veratrum grandiflorum Loes with inhibition activities on Hedgehog pathway” (Bioorg Med Chem Lett, 2016).

Test: Inhibition of hedgehog signaling pathway in mouse Shh Light2 cells assessed as inhibition of sonic hedgehog-induced GLI1-mediated transcriptional activity measured after 30 hrs by dual luciferase reporter gene assay
Assay type: cell-based
Details: Shh Light2, 30 h

| SMILES | IC50 [µM] |
| --- | --- |
| CC(=O)O[C@H]1C[C@H]2[C@@H]3CC=C4C[C@@H](O[C@@H]5O[C@H](CO)[C@@H](O)[C@H](O)[C@H]5O)CC[C@]4(C)[C@H]3CC[C@]2(C)[C@H]1[C@H](C)C1=NC[C@H](C)CC1 | > 25 |
| CC1=C2C[C@H]3[C@@H](CC=C4C[C@@H](O)CC[C@@]43C)[C@@H]2CC[C@]12O[C@@H]1C[C@H](C)CN[C@H]1[C@H]2C [CYCLOPAMINE] | 0.0741 |
| C[C@H]1CC[C@@H]2[C@@H](C)[C@H]3[C@H](C[C@H]4[C@@H]5CC=C6C[C@@H](O)CC[C@]6(C)[C@H]5CC[C@]34C)N2C1 | > 25 |
| Cc1c([C@H](C)[C@H]2CC[C@H](C)CN2)ccc2c1C[C@H]1[C@H]2CC=C2C[C@@H](O)CC[C@@]21C | 0.63 |
| CC(=O)O[C@@H]1C[C@H]2[C@@H](CC=C3C[C@@H](O[C@@H]4O[C@H](CO)[C@@H](O)[C@H](O)[C@H]4O)CC[C@@]32C)[C@@H]2CC[C@H]([C@H](C)C3=NC[C@H](C)CC3=O)[C@@]12C | 1.11 |

Continued, values first:

| IC50 [µM] | SMILES |
| --- | --- |
| 2.78 | CC(=O)O[C@@H]1C[C@H]2[C@@H](CC=C3C[C@@H](O[C@@H]4O[C@H](CO)[C@@H](O)[C@H](O)[C@H]4O)CC[C@@]32C)[C@@H]2CC[C@H]([C@@](C)(O)C3=NC[C@H](C)CC3)[C@@]12C |
| > 25 | C/C=C(/C)C(=O)O[C@H]1CC[C@@]2(C)[C@@H]3CC[C@H]4[C@]5(O)[C@@H](O)[C@H](O)[C@H]6[C@@H](CN7C[C@@H](C)CC[C@H]7[C@@]6(C)O)[C@@H]5C[C@@]42O[C@@]13O |
| 3.11 | CC(=O)O[C@@H]1C[C@H]2[C@@H](CC=C3C[C@@H](O)CC[C@@]32C)[C@@H]2CC[C@H]([C@@](C)(O)C3=NC[C@H](C)CC3)[C@@]12C |
